NC(=O)C[C@H](NC(=O)OCc1ccccc1)C(=O)O
solubility (mole fraction)
Settings | 283.15 K | 288.15 K | 293.15 K | 298.15 K | 303.15 K | 308.15 K | 313.15 K | 318.15 K | 323.15 K
in 1,4-dioxane | – | 0.00212 | 0.00241 | 0.00271 | 0.00317 | 0.00358 | 0.00419 | 0.0049 | 0.0057
in 2-butanone | 0.000329 | 0.000433 | 0.000544 | 0.000652 | 0.000745 | 0.00086 | 0.001 | 0.00112 | 0.00128
in acetone | 0.000747 | 0.000777 | 0.000832 | 0.000971 | 0.00112 | 0.00136 | 0.00161 | 0.00194 | 0.00262
in acetonitrile | 7.48e-05 | 0.000149 | 0.000221 | 0.000305 | 0.000395 | 0.000498 | 0.000599 | 0.00069 | 0.000775
in ethanol | 0.000263 | 0.000463 | 0.000753 | 0.00114 | 0.00161 | 0.00213 | 0.00265 | 0.00311 | 0.00347
in isobutanol | 4.91e-05 | 6.83e-05 | 9.5e-05 | 0.000157 | 0.000269 | 0.000403 | 0.000581 | 0.000831 | 0.00107
in isopropanol | 8.58e-05 | 0.000238 | 0.000431 | 0.000625 | 0.000834 | 0.00105 | 0.00127 | 0.00153 | 0.00177
in methanol | 0.00174 | 0.00188 | 0.00233 | 0.00274 | 0.00344 | 0.00413 | 0.00524 | 0.00647 | 0.00801
in n-butanol | 0.00023 | 0.000293 | 0.000361 | 0.000476 | 0.000644 | 0.000846 | 0.0011 | 0.00135 | 0.00171
in n-pentanol | 0.000182 | 0.000221 | 0.00027 | 0.000325 | 0.000415 | 0.000535 | 0.000652 | 0.000829 | 0.00104
in n-propanol | 0.000285 | 0.000339 | 0.000439 | 0.000576 | 0.000737 | 0.000887 | 0.00116 | 0.00142 | 0.00175
in water | 2.14e-05 | 2.75e-05 | 4.02e-05 | 5.55e-05 | 7.33e-05 | 9.44e-05 | 0.000121 | 0.000152 | 0.000198

Source: BigSolDB 2.1
